How the values were obtained:
[1] = tested on: MDA-MB-231; experiment: In vitro cytotoxicity MTT assay; assay type: cell-based, human; conditions: Homo sapiens, MDA-MB-231, 72 h, IC50 ± SD
Procedure: (§1) Six different cell lines were used, including human breast cancer cell line MDA-MB-231 (6×10^3), MDA-MB-453 (2.4×10^4), SK-BR-3 (6×10^3), human breast epithelial cell line M10 (6×10^3), human gastric carcinoma NCI-N87 (2.4×10^4), and human colorectal adenocarcinoma SW48 (2.4×10^4), and seeded in a 96 well plate. Cell lines were obtained from Bioresource Collection and Research Center, BCRC, Taiwan. […] After 72 h, MTT assay (Cayman™) was used to determine the cellular viability.

[2] = tested on: SW48; experiment: In vitro cytotoxicity MTT assay; assay type: cell-based, human; conditions: Homo sapiens, SW48, 72 h, IC50 ± SD
Procedure: as §1

[3] = tested on: M10; experiment: In vitro cytotoxicity MTT assay; assay type: cell-based, human; conditions: Homo sapiens, M10, 72 h, IC50 ± SD
Procedure: as §1

[4] = tested on: MDA-MB-453; experiment: In vitro cytotoxicity MTT assay; assay type: cell-based, human; conditions: Homo sapiens, MDA-MB-453, 72 h, IC50 ± SD
Procedure: as §1

[5] = biological target: HDAC11 (Homo sapiens (Human), UniProt Q96DB2); experiment: HDACs 1-11 enzymatic inhibition by BPS Bioscience
Procedure: HDAC assay was performed according to standard Protocols (Fluorgenic HDACs 1-11 assay kit, BPS Bioscience™). […] After 0.5 h, assay developer was added to the samples and the absorbance was read at fluorogenic wavelength. The relative inhibition to HDACs 1, 2, 3, 4, 5, 6, 7, 8, 9, and 11 activities was determined in each sample. […] All of the compounds were dissolved in DMSO. The serial dilution of the compounds was first performed in 100% DMSO with the highest concentration at 1 mM. Each intermediate compound dilution (in 100% DMSO) would then get directly diluted 10× fold into assay buffer for an intermediate dilution of 10% DMSO in HDAC assay buffer and 5 μl of the dilution was added to a 50 μl reaction so that the final concentration of DMSO is 1% in all of the reactions. The enzymatic reactions for the HDAC enzymes were conducted in duplicate at 37° C. for 30 minutes in a 50 μl mixture containing HDAC assay buffer, 5 μg BSA, an HDAC substrate, a HDAC enzyme and a test compound. After enzymatic reactions, 50 μl of 2×HDAC Developer was added to each well for the HDAC enzymes and the plate was incubated at room temperature for an additional 15 minutes. Fluorescence intensity was measured at an excitation of 360 nm and an emission of 460 nm using a Tecan Infinite M1000 microplate reader. HDAC activity assays were performed in duplicate at each concentration. The fluorescent intensity data were analyzed using the computer software, Graphpad Prism. In the absence of the compound, the fluorescent intensity (Ft) in each data set was defined as 100% activity. In the absence of HDAC, the fluorescent intensity (Fb) in each data set was defined as 0% activity. The percent activity in the presence of each compound was calculated according to the following equation: % activity=(F−Fb)/(Ft−Fb), where F=the fluorescent intensity in the presence of the compound. The values of % activity versus a series of compound concentrations were then plotted using non-linear regression analysis of Sigmoidal dose-response curve generated with the equation Y=B+(T−B)/1+10((Log EC50−X)×Hill Slope), where Y=percent activity, B=minimum percent activity, T=maximum percent activity, X=logarithm of compound and Hill Slope=slope factor or Hill coefficient. The IC50 value was determined by the concentration causing a half-maximal percent activity.

[6] = tested on: histone H3 acetylation (AcH3) in MDA-MB-231 cells; experiment: Western blot of histone H3 acetylation; assay type: cell-based, human; conditions: MDA-MB-231, 1.0 μM, 24 h
Procedure: Human breast cancer MDA-MB-231 cells and human colorectal adenocarcinoma SW48 cells were analyzed. MDA-MB-231 and SW48 were obtained from Bioresource Collection and Research Center (BCRC, Taiwan). MDA-MB-231 and SW48 were grown at 37° C. under humidified air supplemented without CO2 in Leibovitz's L-15 (cat. #11415114, Thermo Fisher Scientific) containing 10% heat inactivated fetal calf serum (Thermo Scientific), 1× concentration of MycoZap antibiotics (cat. #VZA-2011, Lonza). Cells were treated with GNTbm compounds series, Chidamide or Entinostat for different time periods or at varied doses. Cells were treated with indicated doses for 24 h or cells were treated with indicated doses for different time periods. Cell pellets were dissolved with RIPA buffer (cat. #20-188, Merck) with protease and phosphatase inhibitors (cat. #K272, BioVision) and clarified by centrifugation. Equal amounts of total protein were resolved by SDS-PAGE and transferred to polyvinylidene fluoride membranes (cat. #1620177, BIO-RAD). Blots were incubated with primary antibodies against β-actin (cat. #sc-47778, Santa Cruz Biotechnology), Histone 3ac (cat. #61637, Active Motif), and HRP secondary antibodies anti-rabbit (ab6721, Abcam) and anti-mouse (sc-2005, Santa Cruz). Blots were developed using the ECL Western Blotting Substrate (cat. #sc-2048, Santa Cruz Biotechnology) Image blots were analyzed with the iBright FL1000 (Thermo Fisher Scientific) imaging systems.

[7] = tested on: MDA-MB-231 cells; experiment: Cell cycle arrest by PI flow cytometry; assay type: cell-based, human; conditions: MDA-MB-231, 3.125 μM, 72 h
Procedure: (§2) A PI/RNase staining assay (BD Bioscience™) was performed to reveal the presence of cell cycle arrest and apoptotic cells after treatment with GNTbm compounds, Chidamide and Entinostat. […] After treatment cells were harvested, fixed with 80% ethanol for 24 h, washed with 1×PBS and stained with PI/RNase for 15 min at room temperature. The cells were then analyzed using Flow Cytometer within 1 h.

[8] = tested on: M10 cells; experiment: Cell cycle arrest by PI flow cytometry; assay type: cell-based, human; conditions: M10, 12.5 μM, 72 h
Procedure: as §2

[9] = tested on: SW48 cells; experiment: Cell cycle arrest by PI flow cytometry; assay type: cell-based, human; conditions: SW48, 3.125 μM, 72 h
Procedure: as §2

[10] = tested on: SK-BR-3; experiment: In vitro cytotoxicity MTT assay; assay type: cell-based; conditions: Homo sapiens, 72 h, IC50 ± SD
Procedure: as §1

[11] = tested on: MDA-MB-231 cells; experiment: Cell apoptosis (sub-G1) by PI flow cytometry; assay type: cell-based, human; conditions: MDA-MB-231, 6.25 μM, 72 h
Procedure: as §2

[12] = tested on: M10 cells; experiment: Cell apoptosis (sub-G1) by PI flow cytometry; assay type: cell-based, human; conditions: M10, 12.5 μM, 72 h
Procedure: as §2

[13] = tested on: SW48 cells; experiment: Cell apoptosis (sub-G1) by PI flow cytometry; assay type: cell-based, human; conditions: SW48, 6.25 μM, 72 h
Procedure: as §2

[14] = tested on: CT26 tumor; experiment: Survival rate in CT26 tumor-bearing mice; assay type: in vivo; conditions: Exp 1
Procedure: The administration of antibody or drugs was performed for 16 days from day 8 to day 23. The tumor continued to grow in the tumor-bearing mice. The tumor volume of the mice was measured once every three or four days (twice/week). The tumor-bearing mice were regarded as dead when the tumor volume reached 3,000 mm^3. All treatment groups were recorded and analyzed.

[15] = tested on: CT26 tumor; experiment: Anti-cancer activity in CT26 tumor-bearing BALB/c mice; assay type: in vivo; conditions: for ORR (%): k-30 compounds 50 mg/kg, Regorafenib 30 mg/kg po daily; for ORR (%) / CR / PD / PR: first tumor assessment; for CR / PD / PR / CR^& / PD^& / PR^& / SD^&: number of mice; for ORR (%)^& / CR^& / PD^& / PR^& / SD^&: second tumor assessment on day 40
Procedure: Six- to eight-week-old male BALB/c mice (National Laboratory Animal Center, Taiwan) were used in each treatment group for all animal experiments. […] CT26 cell line was purchased from ATCC. CT26 tumor cells were grown in McCoy's 5A supplemented with 10% (vol/vol) FBS at 37° C., 5% CO2. […] Tumors were allowed to grow for 8-11 days (tumor size about 150-250 mm^3) before randomization and treatment. Animals were euthanized when tumors reached more than 3000 mm^3 […]. CT26-bearing mice were given 2.5 mg/kg of anti-IgG (cat. #BE0089, Lot #716719J3, Bio X Cell) and anti-PD-1 (cat. #BE0146, Lot #735019J3, Bio X Cell) antibody by i.p. administration on days 8, 11, 14, 17, 20 and 23 post tumor implantation, and all antibodies were diluted to appropriate concentrations in 100 μL of sterile PBS (pH 7.4) (Invitrogen Life Technologies). […] The anti-cancer activity was measured from the start of the treatment until the tumor volume reached 3,000 mm^3. Tumor volume was calculated as length×width^2×0.5.
The BALB/c mice bearing murine CT26 colon tumors were treated with various therapeutic modalities as indicated. […] CT26 tumor-bearing mice were euthanized when tumor volume reached 3000 mm^3 after tumor implantation. […] After 16 days of treatment, we continued to monitor the tumor size up to day 60. When tumor growth reappeared and tumor size reached at least 5 fold in mice with CR or PR response after first tumor assessment, it was defined as relapse/recurrence. […] Furthermore, we also investigate epigenetic immunomodulatory properties in series of GNTbm compounds including GNTbm-05/k-30, GNTbm-11/k-30, GNTbm-38/k-30 and GNTbm-39/k-30.

[16] = tested on: CT26 cells; experiment: Tumor rechallenge study (immune memory) in tumor-bearing mice; assay type: in vivo; conditions: Exp 1; mice resistant to CT26 re-challenge
Procedure: All mice with PR/CR response after treatment went rechallenged with CT26 cells on the contralateral side (please see Table 6). The rechallenge with CT26 was performed on day 33, which was 7 days (day 33) after first tumor assessment (day 26), with injection of 5×10^6 CT26 cells to the right flank of each mouse. After rechallenge with CT26 cells, the tumor was allowed to grow for another 7 days (day 40) to determine the baseline as 1 fold. After a further 10 days (day 50), the tumor growth was evaluated for the rechallenge. If both of the following criteria are met, the response will be considered as relapse: first, the tumor size over 2 folds when compared to that of baseline; second, the tumor volume at day 50 was over 300 mm^3. Relapse happens when immune memory activity is not sufficiently activated. If the tumor growth is inhibited, it means the immune memory is activated.
The mice were treated with different regimens for 16 days, and then the first tumor assessment was performed (day 26). […] Then rechallenge was performed with the same kind of cancer cells (CT26; 5×10^6) inoculated on the opposite flank for about another 7 days (day 40), and then the tumor volume would be determined as baseline (1 fold). The rechallenge tumor was allowed to grow for 10 days (day 50), and then the tumor size was measured to evaluate the immune memory as positive or negative. […]

HDAC11, sequence (Q96DB2 whole entry): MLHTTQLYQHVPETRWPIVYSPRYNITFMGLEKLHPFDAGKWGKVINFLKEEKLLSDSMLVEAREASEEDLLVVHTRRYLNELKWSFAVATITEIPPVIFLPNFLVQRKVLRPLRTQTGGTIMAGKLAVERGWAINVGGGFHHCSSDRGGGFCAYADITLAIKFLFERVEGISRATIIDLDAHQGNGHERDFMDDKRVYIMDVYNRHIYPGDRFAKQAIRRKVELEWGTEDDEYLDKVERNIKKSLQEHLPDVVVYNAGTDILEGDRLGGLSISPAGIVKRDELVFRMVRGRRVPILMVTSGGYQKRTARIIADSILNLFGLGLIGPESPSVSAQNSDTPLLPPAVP

Nc1ccccc1NC(=O)c1ccc(CNC(=O)OCc2cccnc2)cc1 [Entinostat, reference compound]
IC50 [1]: 13.2 ± 1.34 µM | IC50 [2]: 5.21 ± 0.37 µM | IC50 [3]: 4.34 ± 0.01 µM | IC50 [4]: 1.82 ± 0.024 µM | IC50 [5]: > 10 µM | Level of histone H3 acetylation [6]: significantly increased the level of histone H3 acetylation | Cell cycle arrest [7]: significantly induced cell cycle arrest in G0/G1 phase | Cell cycle arrest [8]: significantly induced cell cycle arrest of M10 cells in the G2/M phase | Cells in G2/M phase [8]: 20.2% | Cell cycle arrest [9]: significantly induced cell cycle arrest in G0/G1 phase | Cells in G0/G1 phase [9]: 72.1% | IC50 [10]: 1.94 ± 0.1 µM | Induction of apoptosis (sub-G1 phase) [11]: significantly induced apoptosis | Induction of apoptosis (sub-G1 phase) [12]: significantly induced apoptosis in M10 cells | Induction of apoptosis (sub-G1 phase) [13]: significantly induced apoptosis

CNC(=O)c1cc(Oc2ccc(NC(=O)Nc3ccc(Cl)c(C(F)(F)F)c3)c(F)c2)ccn1 [Regorafenib]
Survival rate (%) [14]: 11% | ORR (%) ([15]; Exp 1, initial tumor volume 245 mm3, strict criteria (PR ≤1 times)): 11% | CR ([15]; Exp 1): 1 | PD ([15]; Exp 1): 1 | PR ([15]; Exp 1): 0 | ORR (%)^& ([15]; Exp 1): 22% | CR^& ([15]; Exp 1): 2 | PD^& ([15]; Exp 1): 5 | PR^& ([15]; Exp 1): 0 | SD^& ([15]; Exp 1): 2 | Relapse (recurrence) ([15]; Exp 1, tumor growth at least 5 fold in mice with CR or PR after first assessment, monitored up to day 60): 0% (0/1) | ORR (%) ([15]; Exp 2, initial tumor volume 192 mm3): 0% | CR ([15]; Exp 2): 0 | PD ([15]; Exp 2): 8 | PR ([15]; Exp 2): 0 | ORR (%)^& ([15]; Exp 2): 0% | CR^& ([15]; Exp 2): 0 | PD^& ([15]; Exp 2): 9 | PR^& ([15]; Exp 2): 0 | SD^& ([15]; Exp 2): 0 | Immunity (rechallenge) [16]: 100% (1/1)

Reference: patent US11672788B2, “Histone deacetylase inhibitors for immunomodulation in tumor microenvironment” (GREAT NOVEL THERAPEUTICS BIOTECH & MEDICALS CORPORATION, priority 2020, dated 2023)
